Assay results from patent EP2276347B1, “TOLTRAZURIL WITH IMPROVED DISSOLUTION PROPERTIES” (KRKA, tovarna zdravil, d.d., Novo mesto, priority 2008, dated 2009).

Test: Specific surface area by nitrogen adsorption gas sorption (BET method)
Format: physicochemical
Conditions: toltrazuril particles, outgased in vacuum at room temperature
Experimental: Specific surface area was measured by gas sorption system based on nitrogen adsorption, using Brunauer, Emmett and Teller (BET) method. Corresponding amount of sample was outgased in a vacuum at room temperature. After degasification the tube was weighed with sample and the analysis was proceeded.

Specific surface area	Structure (SMILES)
15 m^2/g	Cc1cc(-n2c(=O)[nH]c(=O)n(C)c2=O)ccc1Oc1ccc(SC(F)(F)F)cc1 [Example 2, toltrazuril]
15.2 m^2/g	Cc1cc(-n2c(=O)[nH]c(=O)n(C)c2=O)ccc1Oc1ccc(SC(F)(F)F)cc1 [Example 4, toltrazuril]
14.1 m^2/g	Cc1cc(-n2c(=O)[nH]c(=O)n(C)c2=O)ccc1Oc1ccc(SC(F)(F)F)cc1 [micronized toltrazuril, toltrazuril]

The next lines start with the compound.

Structure (SMILES)	Specific surface area
Cc1cc(-n2c(=O)[nH]c(=O)n(C)c2=O)ccc1Oc1ccc(SC(F)(F)F)cc1 [Example 1, toltrazuril]	13.8 m^2/g
Cc1cc(-n2c(=O)[nH]c(=O)n(C)c2=O)ccc1Oc1ccc(SC(F)(F)F)cc1 [Example 3, toltrazuril]	13.8 m^2/g
Cc1cc(-n2c(=O)[nH]c(=O)n(C)c2=O)ccc1Oc1ccc(SC(F)(F)F)cc1 [Example 5, toltrazuril]	19.5 m^2/g
Cc1cc(-n2c(=O)[nH]c(=O)n(C)c2=O)ccc1Oc1ccc(SC(F)(F)F)cc1 [Example 6, toltrazuril]	18.8 m^2/g
